Assay [1] concerns NPM1 on the surface of OCI-AML3 cells. Briefly: Effect of chemotherapeutics on anti-NPM1 antibody binding to OCI-AML3 cell surface. The format is cell-based, human.
For a further assay, the system named is OCI-AML3 cells. Briefly: Low dose chemotherapeutics: induction of cell surface NPM1 on OCI-AML3 cells. The format is cell-based, human. The settings on record: daunorubicin 10 nanomolar (nm), venetoclax 40 nm; for NPM1 on the cell surface: 48 hrs. The procedure:
To determine whether low doses of chemotherapeutic agents, daunorubicin and venetoclax, induce cell surface NPM1, OCI-AML3 cells were exposed to either control or a low dose of a chemotherapeutic treatment. OCI-AML3 cells are resistant to BLC2i. Daunorubicin was administered at 10 nanomolar (nm) and venetoclax was administered at 40 nm. Administration of daunorubicin increased NPM1 on the cell surface at 48 hrs and maintained higher expression for at least 9 days. Administration of venetoclax and separately 5-Aza increased NPM1 at 48 hrs and maintained higher expression for at least 7 days (FIG. 32).

Assay [2] deals with normal myeloid progenitor line HOXB8. Briefly: Low dose chemotherapeutics: cell surface NPM1 on non-transformed HOXB8 cells. The settings on record: daunorubicin 10 nM, venetoclax 40 nM, 48 and 72 hours. The format is cell-based. The procedure: (§1) The ability of low doses of chemotherapeutic agents, daunorubicin and venetoclax, to induce cell surface NPM1 on non-transformed cells was tested. Normal hematopoietic precursor cell line HPC7 and normal myeloid progenitor line HOXB8 were exposed to either control or a low dose of a chemotherapeutic treatment. Doses of daunorubicin and venetoclax were administered at 10 nanomolar (nM) and 40 nM, respectively. The results of the antibody binding measured by flow cytometry show no change in the low dose chemotherapeutic compared to controls (FIG. 33).

Assay [3] relates to Normal hematopoietic precursor cell line HPC7. In words: Low dose chemotherapeutics: cell surface NPM1 on non-transformed HPC7 cells. The format is cell-based. The settings on record: daunorubicin 10 nM, venetoclax 40 nM, 48 and 72 hours. The procedure:
as §1

The next assay deals with T1, murine NPM1 (murine, UniProt Q61937 1-292).
T1 construct: also called NPM1 on primary murine MLL-rearranged (MLL-r) AML cells; NPM1 on MLL-AF9/Flt3-ITD AML cells
T1 sequence (Q61937 whole entry): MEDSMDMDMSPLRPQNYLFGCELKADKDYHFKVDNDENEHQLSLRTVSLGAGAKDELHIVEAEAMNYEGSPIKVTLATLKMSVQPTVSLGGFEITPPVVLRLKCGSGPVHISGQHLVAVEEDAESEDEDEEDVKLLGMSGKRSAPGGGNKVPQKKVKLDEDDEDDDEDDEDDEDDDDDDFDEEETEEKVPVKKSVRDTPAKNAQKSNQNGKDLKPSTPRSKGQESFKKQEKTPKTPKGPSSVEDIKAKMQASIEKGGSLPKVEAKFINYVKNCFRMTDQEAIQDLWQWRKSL
Briefly: FACS, primary murine MLL-r AML cells. A general note: In flow cytometry, cells or beads pass a laser one at a time.

Assay [4] concerns the target T2, human nucleophosmin 1 (NPM1) (human, UniProt P06748 1-294).
T2 construct: In the blots it is NPM1 from lysates or membrane fractions, not on cells; also called WT NPM1; wild-type NPM1
Briefly: FACS, human AML PDX cells (PDX-1, PDX-3, PDX-4).

Assay [5] deals with T3, surface localized NPM1 on primary murine MLL-rearranged AML cells (Mus musculus, UniProt Q61937).
T3 construct: endogenous in cells; host or cells: primary murine MLL-rearranged AML cells
T3 sequence (Q61937 whole entry): as above
Briefly: FACS binding to primary murine MLL-rearranged AML cells. The class given is cell-based. The text has this: (§2) Given that a variety of murine and human leukemia cell lines express cell surface WT and/or mutant NPM1, it was subsequently assessed whether the isolated antibodies could also bind to the surface of these cells. […] These antibodies could further be used in other applications, including, for example, diagnostic agents by instead conjugating the antibodies with an imaging agent, which can in turn be used to locate and measure the relative abundance of cancer cells in a patient.

Assay [6] relates to NPM1 on human patient derived xenograft (PDX) cells. In words: FACS binding to human PDX cells transplanted into a mouse model. The format is cell-based.
From the text: as §2

In assay [7] the test system is host murine bone marrow cells. Briefly: FACS binding to host murine bone marrow cells of PDX mice. To be noted: host bone marrow of PDX mouse model. The format is cell-based.
From the text: as §2

Assay [8] has as its system surface localized NPM1 on primary murine NPM1c AML cells. In words: FACS binding to primary murine NPM1c AML cells. The format is cell-based.
From the text: as §2

T2 sequence (P06748 whole entry): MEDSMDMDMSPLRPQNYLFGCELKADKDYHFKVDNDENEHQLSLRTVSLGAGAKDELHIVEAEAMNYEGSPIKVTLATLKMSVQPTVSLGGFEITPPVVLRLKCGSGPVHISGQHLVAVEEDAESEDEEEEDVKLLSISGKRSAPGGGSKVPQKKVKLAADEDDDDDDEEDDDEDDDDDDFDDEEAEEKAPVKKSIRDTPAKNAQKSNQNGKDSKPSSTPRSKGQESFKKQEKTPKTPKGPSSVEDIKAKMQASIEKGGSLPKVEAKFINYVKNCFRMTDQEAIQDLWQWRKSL

`Nc1ncn([C@@H]2O[C@H](CO)[C@@H](O)[C@H]2O)c(=O)n1` [5-azacytidine]: the “binding of anti-NPM1 antibodies to NPM1 on the surface of OCI-AML3 cells” value in assay [1] (40 nM 5-azacytidine) is “The same effect was observed”. Moreover, the “binding between the isolated anti-mutant NPM1 and OCI-AML3 cells” value in assay [1] (after only 24 hours of treatment with 5-Aza) was “substantially enhanced”. In addition, in the assay with OCI-AML3 cells, the “NPM1 on the cell surface” value was “increased”.

As for `COc1cccc2c1C(=O)c1c(O)c3c(c(O)c1C2=O)C[C@@](O)(C(C)=O)C[C@@H]3O[C@H]1C[C@H](N)[C@H](O)[C@H](C)O1` [daunorubicin], the “binding between the isolated anti-WT NPM1 and anti-mutant NPM1 antibody and NPM1 on the surface of OCI-AML3 cells” value in assay [1] (10 nM daunorubicin or 40 nM venetoclax) is on record as “enhanced binding”. For the same molecule, the “binding of anti-NPM1 antibody (Merck/Sigma anti-B23 #B0556) to cells” value in assay [1] (8 days post-treatment, 10 nM daunorubicin or 40 nM venetoclax) is “substantially enhanced”; in assay [1] (after 48 hours of treatment, 10 nM daunorubicin or 40 nM venetoclax), “enhanced”. The “NPM1 on the cell surface” value in the assay on OCI-AML3 cells was “increased”. In addition, the “time for which higher NPM1 expression was maintained” value in the assay on OCI-AML3 cells is “at least 9 days”. Besides, the “antibody binding (cell surface NPM1) compared to controls” value in [2] and in assay [3] was “no change” throughout.

B1: Ab1 anti-NPM1 antibody (antibody, mouse IgG2a, kappa, V domains shown)
VH: EVQLQQSVAELVRPGASVKLSCTASGFNIKNIFVHWVKQRPEQGLEWIGKIDPANDNTKFAPNFQGKAAISADTSSNTAYLQLSSLTSEDTAIYYCASDSSGYDAVDYWGQGTSVTVSS
VL: DIQMTQSPASLSASVGETVTITCRASESVYTYLAWYQQKQGKSPQLLVYNAKTLTEGVPSRFSGSGSGTQFSLRINSLQPEDFGSYYCQHHYGTPYTFGSGTKLEIKR
notes: also called isolated anti-WT NPM1 antibody
On to B1, for which the binding result (in the assay with murine NPM1; in assay [4]) was “binds” in each case.

B2: Ab1 (antibody)
heavy: EVQLQQSVAELVRPGASVKLSCTASGFNIKNIFVHWVKQRPEQGLEWIGKIDPANDNTKFAPNFQGKAAISADTSSNTAYLQLSSLTSEDTAIYYCASDSSGYDAVDYWGQGTSVTVSSAKTTAPSVYPLAPVCGDTTGSSVTLGCLVKGYFPEPVTLTWNSGSLSSGVHTFPAVLQSDLYTLSSSVTVTSSTWPSQSITCNVAHPASSTKVDKKIEPRGPTIKPCPPCKCPAPNLLGGPSVFIFPPKIKDVLMISLSPIVTCVVVDVSEDDPDVQISWFVNNVEVHTAQTQTHREDYNSTLRVVSALPIQHQDWMSGKEFKCKVNNKDLPAPIERTISKPKGSVRAPQVYVLPPPEEEMTKKQVTLTCMVTDFMPEDIYVEWTNNGKTELNYKNTEPVLDSDGSYFMYSKLRVEKKNWVERNSYSCSVVHEGLHNHHTTKSFSRTPGK
light: DIQMTQSPASLSASVGETVTITCRASESVYTYLAWYQQKQGKSPQLLVYNAKTLTEGVPSRFSGSGSGTQFSLRINSLQPEDFGSYYCQHHYGTPYTFGSGTKLEIKRADAAPTVSIFPPSSEQLTSGGASVVCFLNNFYPKDINVKWKIDGSERQNGVLNSWTDQDSKDSTYSMSSTLTLTKDEYERHNSYTCEATHKTSTSPIVKSFNRNEC
In the case of B2, the “binding to surface localized NPM1” value in assay [5] and in assay [8] was “capable of binding” throughout. The “binding to NPM1 on PDX cells” value in [6] is “bound”. The “binding to host murine bone marrow cells” value in assay [7] is given as “without binding”.

The values are drawn from patent US20250325717A1, “ANTI-NUCLEOPHOSMIN 1 ANTIBODY AND ANTIBODY CONJUGATE COMBINATION THERAPIES” (The Children's Medical Center Corporation, priority 2022, published 2025).
